# Measurements published in patent publication EP0978517A2, “Triazolopurines, process for their preparation and their use as medicaments” (Boehringer Ingelheim Pharma KG, priority 1996, dated 1998).
# Assays:
# [1] = target: T1, human A3-adenosine receptor (Homo sapiens, UniProt P0DMS8); test: A3 receptor binding, determined in analogy to Salvatore et al. (Table 21); details: Rezeptorbindungswerte, Tabelle 21, read-out: KiA3
# T1 sequence (P0DMS8 1-318): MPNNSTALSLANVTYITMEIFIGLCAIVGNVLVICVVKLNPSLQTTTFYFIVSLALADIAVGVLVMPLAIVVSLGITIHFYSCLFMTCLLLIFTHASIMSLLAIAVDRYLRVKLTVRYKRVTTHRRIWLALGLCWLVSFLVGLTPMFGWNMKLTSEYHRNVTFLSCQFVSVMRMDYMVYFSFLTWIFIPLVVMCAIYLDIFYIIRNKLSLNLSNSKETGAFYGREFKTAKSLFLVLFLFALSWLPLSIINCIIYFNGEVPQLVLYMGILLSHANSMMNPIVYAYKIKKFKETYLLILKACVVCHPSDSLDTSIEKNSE
# Text: Die in Tabelle 21 zusammengefassten A3-Rezeptorbindungswerte wurden in Analogie zu Salvatore et al. "Molecular cloning and characterization of the human A3-adenosine receptor" (Proc. Natl. Acad. Sci. USA 90, 10365-10369, 1993) ermittelt.
# Die nachfolgende Tabelle enthält KiA3 (human) Rezeptorbindungswerte. Tabelle 21
# A2-Rezeptor = A2-Rezeptor (Rattus norvegicus, UniProt P30543); test: A2 receptor binding (Table 20); details: Ratte; Rezeptorbindungswerte, Tabelle 20; read-out: KiA2
# A2-Rezeptor, sequence (P30543 whole entry): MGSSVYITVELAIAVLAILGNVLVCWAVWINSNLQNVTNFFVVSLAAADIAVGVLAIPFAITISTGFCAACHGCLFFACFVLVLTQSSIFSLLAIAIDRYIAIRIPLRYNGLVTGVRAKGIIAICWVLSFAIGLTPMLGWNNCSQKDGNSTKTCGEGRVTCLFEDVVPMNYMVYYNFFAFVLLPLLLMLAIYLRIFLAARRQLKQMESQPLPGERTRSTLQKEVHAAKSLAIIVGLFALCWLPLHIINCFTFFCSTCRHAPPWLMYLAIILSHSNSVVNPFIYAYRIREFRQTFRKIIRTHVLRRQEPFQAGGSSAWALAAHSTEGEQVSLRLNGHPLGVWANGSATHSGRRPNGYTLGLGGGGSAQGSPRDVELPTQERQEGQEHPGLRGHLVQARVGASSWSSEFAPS
# Text: (§1) Die nachfolgende Tabelle enthält KiA1 (human) und KiA2 (Ratte) Rezeptorbindungswerte. Tabelle 20
# [2] = target: T2, human A1 adenosine Receptor (Homo sapiens, UniProt P30542); test: A1 receptor binding, determined in analogy to Ensinger et al. (Table 20); details: Rezeptorbindungswerte, Tabelle 20, read-out: KiA1
# T2 sequence (P30542 1-326): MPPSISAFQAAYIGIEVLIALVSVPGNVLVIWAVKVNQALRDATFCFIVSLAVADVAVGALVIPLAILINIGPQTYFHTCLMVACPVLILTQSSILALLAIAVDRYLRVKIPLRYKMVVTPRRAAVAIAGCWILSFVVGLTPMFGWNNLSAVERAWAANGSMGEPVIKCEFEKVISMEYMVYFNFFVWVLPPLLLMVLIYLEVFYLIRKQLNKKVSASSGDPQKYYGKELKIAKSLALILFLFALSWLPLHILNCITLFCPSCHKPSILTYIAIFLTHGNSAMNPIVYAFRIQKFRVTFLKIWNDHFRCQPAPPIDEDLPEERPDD
# Text: Die ermittelten A1-Rezeptorbindungswerte wurden in Analogie zu Ensinger et al. in "Cloning and functional characterisation of human A1 adenosine Receptor - Biochemical and Biophysical Communications, Vol 187, No. 2, 919-926, 1992" bestimmt und sind in Tabelle 20 zusammengefaßt.
# as §1
Structure (SMILES),Ki [1],Ki (A2-Rezeptor),Ki [2]
CCn1c2nc(C(C)(C)C)[nH]c2c(=O)n2nc(Cc3ccccc3)nc12 [compound 68],0.03 µM,–,–
CCc1nc2c([nH]1)c(=O)n1nc(COc3ccc(OC)cc3)nc1n2CC [compound 82],0.025 µM,–,–
CCCCc1nc2n(CCC)c3nc(C4CCCC4)[nH]c3c(=O)n2n1 [Beispiel 38],0.022 µM,0.532 µM,0.0064 µM
CCCn1c2nc(C3CCCC3)[nH]c2c(=O)n2nc(-c3ccco3)nc12 [Beispiel 48],–,4.46 µM,0.0114 µM
CCCn1c2nc(N3CCOCC3)[nH]c2c(=O)n2nc(Cc3ccccc3)nc12 [Beispiel 13],–,0.082 µM,0.0052 µM
CCn1c2nc(C3CCCC3)[nH]c2c(=O)n2ncnc12 [Beispiel 30],–,3.29 µM,0.0815 µM
CCCCn1c2nc(C3CCCC3)[nH]c2c(=O)n2nc(Cc3ccccc3)nc12 [Beispiel 11],–,0.345 µM,0.0083 µM
CCn1c2nc(C3CCCC3)[nH]c2c(=O)n2nc(Cc3ccccc3)nc12 [Beispiel 9],–,0.422 µM,0.0014 µM
CCCn1c2nc(CC)[nH]c2c(=O)n2nc(C3CCCC3)nc12 [Beispiel 23],0.002 µM,–,–
CCCn1c2nc(N(C)C)[nH]c2c(=O)n2nc(Cc3ccccc3)nc12 [compound 65],0.003 µM,–,–
CCCn1c2nc(C3CCCC3)[nH]c2c(=O)n2nc(C(C)(C)C)nc12 [Beispiel 39],–,0.539 µM,0.006 µM

# More lines, now with the values ahead:
Ki [1],Ki (A2-Rezeptor),Ki [2],Structure (SMILES)
0.0047 µM,–,–,CCCn1c2nc[nH]c2c(=O)n2nc(Cc3ccccc3)nc12 [Beispiel 3]
0.0038 µM,–,–,O=c1c2[nH]cnc2[nH]c2nc(C3CCCC3)nn12 [Beispiel 19]
0.0023 µM,–,–,CCCCn1c2nc[nH]c2c(=O)n2nc(Cc3ccccc3)nc12 [Beispiel 4]
0.02 µM,–,–,O=c1c2[nH]c(C3CCCC3)nc2n(Cc2ccccc2)c2nc(Cc3ccccc3)nn12 [Beispiel 12]
–,0.307 µM,0.0064 µM,CCCn1c2nc(C3CCCC3)[nH]c2c(=O)n2nc(C(C)C)nc12 [Beispiel 37]
0.002 µM,–,–,CCCn1c2nc(CC)[nH]c2c(=O)n2nc(Cc3ccccc3)nc12 [Beispiel 6]
–,0.158 µM,0.0081 µM,CCCc1nc2c([nH]1)c(=O)n1nc(Cc3ccccc3)nc1n2CCC [Beispiel 7]
–,0.363 µM,0.0019 µM,Cn1c2nc(C3CCCC3)[nH]c2c(=O)n2nc(Cc3ccccc3)nc12 [Beispiel 8]
–,0.73 µM,0.0017 µM,CCCn1c2nc(C3CCCC3)[nH]c2c(=O)n2nc(Cc3ccccc3)nc12 [Beispiel 10]
0.026 µM,1.23 µM,0.0103 µM,CCCCCn1c2nc(C3CCCC3)[nH]c2c(=O)n2nc(Cc3ccccc3)nc12 [Beispiel 25]
–,0.731 µM,0.0058 µM,CCCc1nc2n(CCC)c3nc(C4CCCC4)[nH]c3c(=O)n2n1 [Beispiel 36]
0.0053 µM,–,–,CCc1nc2c([nH]1)c(=O)n1nc(CCc3ccccc3)nc1n2CC [compound 78]
